Results from patent US6215002A, “Pyrrolopyrrolone derivatives as inhibitors of neutrophil elastase” (priority 1996, dated 2001).
Structures can show the parent of a compound that is named as a salt.

target: T1, human neutrophil elastase (Homo sapiens, UniProt P08246); test: In vitro assay of human neutrophil elastase (HNE); assay type: biochemical; conditions: 118 nM purified human neutrophil elastase, pH 8.6, 15 min incubation at 30° C., MeO-succinyl-alanyl-alanyl-prolyl-valyl-p-nitroanilide substrate; read-out: HNE IC50
T1 sequence (P08246 30-267): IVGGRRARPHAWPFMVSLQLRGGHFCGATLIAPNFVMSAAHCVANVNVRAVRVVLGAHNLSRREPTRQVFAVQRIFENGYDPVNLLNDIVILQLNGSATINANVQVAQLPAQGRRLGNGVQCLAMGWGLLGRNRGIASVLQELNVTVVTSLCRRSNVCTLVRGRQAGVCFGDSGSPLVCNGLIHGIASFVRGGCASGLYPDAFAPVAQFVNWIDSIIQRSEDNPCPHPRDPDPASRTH
Protocol: In Vitro Assays of Human Neutrophil Elastase
118 nM purified human neutrophil elastase
Suitable concentrations of compound under test diluted with water from a 10 mM stock solution in dimethylsulphoxide. Values above are final concentrations after the addition of substrate solution (see below).
The mixture above is incubated for fifteen minutes at 30° C. at which time the remaining elastase activity is measured for 10 minutes in a BioTek 340i plate-reader, after the addition of 0.6 mM MeO-succinyl-alanyl-alanyl-prolyl-valyl-p-nitroanilide. The rate of increase in absorbance at 405 nm is proportional to elastase activity. Enzyme activity is plotted against concentration of inhibitor and an IC50 determined using curve fitting software.
1. The compounds were tested in the in vitro elastase test described earlier in the description.

SMILES	IC50
CCC[C@H]1C(=O)N(S(C)(=O)=O)[C@H]2CCN(C(=O)CCCCCCCCCN3CCCCCC3)[C@H]12 (relative stereo) [Example 66, rel-(3R,3aR,6aS)-4-(10-Azepin-1-yl-decanoyl)-1-methanesulfonyl-3-propyl-hexahydro-pyrrolo[3,2-b]pyrrol-2-one hydrochloride]	34 nM
CCC[C@H]1C(=O)N(S(C)(=O)=O)[C@H]2CCN(C(=O)CCCCCCCCCN(C)c3ccccc3)[C@H]12 (relative stereo) [Example 68, rel-(3R,3aR,6aS)-1-Methanesulfonyl-4-[10-methyl-phenyl-amino)decanoyl]-3-propyl-hexahydro-pyrrolo[3,2-b]pyrrol-2-one hydrochloride]	73 nM
CCC[C@H]1C(=O)N(S(C)(=O)=O)[C@H]2CCN(C(=O)CCCCCCCCCN3CCCC3)[C@H]12 (relative stereo) [Example 71, rel-(3R,3aR,6aS)-1-Methanesulfonyl-3-propyl-4-(10-pyrrolidin-1-yl-decanoyl)-hexahydro-pyrrolo[3,2-b]pyrrol-2-one hydrochloride]	35 nM
CCC[C@H]1C(=O)N(S(C)(=O)=O)[C@H]2CCN(C(=O)CCCCCCCCCN3CCC3)[C@H]12 (relative stereo) [Example 72, rel-(3R,3aR,6aS)-4-(10-Azetidin-1-yl-decanoyl)-1-methanesulfonyl-3-propyl-hexahydro-pyrrolo[3,2-b]pyrrol-2-one DL-tartrate]	37 nM
CCC[C@H]1C(=O)N(S(C)(=O)=O)[C@H]2CCN(C(=O)CCCCCN3CCCC3)[C@H]12 (relative stereo) [Example 73, rel-(3R,3aR,6aS)-1-Methanesulfonyl-3-propyl-4-(6-pyrrolidin-1-yl-hexanoyl)-hexahydro-pyrrolo[3,2-b]pyrrol-2-one hydrochloride]	74 nM
CCC[C@H]1C(=O)N(S(C)(=O)=O)[C@H]2CCN(C(=O)CCCCCN(CC)CC)[C@H]12 (relative stereo) [Example 76, rel-(3R,3aR,6aS)-4-(6-Diethylamino-hexanoyl)-1-methanesulfonyl-3-propyl-hexahydro-pyrrolo[3,2-b]pyrrol-2-one DL-tartrate]	176 nM
CCC[C@H]1C(=O)N(S(C)(=O)=O)[C@H]2CCN(C(=O)CCCCCN3CCC3)[C@H]12 (relative stereo) [Example 78, rel-(3R,3aR,6aS)-4-(6-Azetidin-1-yl-hexanoyl)-1-methanesulfonyl-3-propyl-hexahydro-pyrrolo[3,2-b]pyrrol-2-one DL-tartrate]	87 nM
CCC[C@H]1C(=O)N(S(C)(=O)=O)[C@H]2CCN(C(=O)CCCCCN3CCCN(C)CC3)[C@H]12 (relative stereo) [Example 80, rel-(3R,3aR,6aS)-1-Methanesulfonyl-4-[6-(4-methyl-[1,4]diazepin-1-yl)-hexanoyl]-3-propyl-hexahydro-pyrrolo[3,2-b]pyrrol-2-one hydrochloride]	61 nM
CCC[C@H]1C(=O)N(S(C)(=O)=O)[C@H]2CCN(C(=O)CCCCCN(C)c3ccccc3)[C@H]12 (relative stereo) [Example 81, rel-(3R,3aR,6aS)-1-Methanesulfonyl-4-[6-(methyl-phenyl-amino)-hexanoyl]-3-propyl-hexahydro-pyrrolo[3,2-b]pyrrol-2-one hydrochloride]	67 nM
CCC[C@H]1C(=O)N(S(C)(=O)=O)[C@H]2CCN(C(=O)CCCN3CCC3)[C@H]12 (relative stereo) [Example 84, rel-(3R,3aR,6aS)-4-(4-Azetidin-1-yl-butyryl)-1-methanesulfonyl-3-propyl-hexahydro-pyrrolo[3,2-b]pyrrol-2-one DL-tartrate]	134 nM
CCC[C@H]1C(=O)N(S(C)(=O)=O)[C@H]2CCN(C(=O)CCCN(C)C)[C@H]12 (relative stereo) [Example 85, rel-(3R,3aR,6aS)-4-(4-Dimethylamino-butyryl)-1-methanesulfonyl-3-propyl-hexahydro-pyrrolo[3,2-b]pyrrol-2-one DL-tartrate]	182 nM

The remaining lines, values ahead:

IC50	SMILES
43 nM	CCC[C@H]1C(=O)N(S(C)(=O)=O)[C@H]2CCN(C(=O)CCCCCCCCCN(C)C)[C@H]12 (relative stereo) [Example 67, rel-(3R,3aR,6aS)-4-(10-Dimethylamino-decanoyl)-1-methanesulfonyl-3-propyl-hexahydro-pyrrolo[3,2-b]pyrrol-2-one DL-tartrate]
80 nM	CCC[C@H]1C(=O)N(S(C)(=O)=O)[C@H]2CCN(C(=O)CCCCCCCCCN3CCN(C)CC3)[C@H]12 (relative stereo) [Example 69, rel-(3R,3aR,6aS)-1-Methanesulfonyl-4-[10-(4-methyl-piperazin-1-yl)-decanoyl]-3-propyl-hexahydro-pyrrolo[3,2-b]pyrrol-2-one dihydrochloride]
41 nM	CCC[C@H]1C(=O)N(S(C)(=O)=O)[C@H]2CCN(C(=O)CCCCCCCCCN3CCCCC3)[C@H]12 (relative stereo) [Example 70, rel-(3R,3aR,6aS)-1-Methanesulfonyl-4-(10-piperidin-1-yl-decanoyl)-3-propyl-hexahydro-pyrrolo[3,2-b]pyrrol-2-one DL-tartrate]
55 nM	CCC[C@H]1C(=O)N(S(C)(=O)=O)[C@H]2CCN(C(=O)CCCCCN3CCCCC3)[C@H]12 (relative stereo) [Example 74, rel-(3R,3aR,6aS)-1-Methanesulfonyl-4-(6-piperidin-1-yl-hexanoyl)-3-propyl-hexahydro-pyrrolo[3,2-b]pyrrol-2-one hydrochloride]
134 nM	CCC[C@H]1C(=O)N(S(C)(=O)=O)[C@H]2CCN(C(=O)CCCCCN(C)C)[C@H]12 (relative stereo) [Example 77, rel-(3R,3aR,6aS)-4-(6-Dimethylamino-hexanoyl)-1-methanesulfonyl-3-propyl-hexahydro-pyrrolo[3,2-b]pyrrol-2-one DL-tartrate]
50 nM	CCC[C@H]1C(=O)N(S(C)(=O)=O)[C@H]2CCN(C(=O)CCCCCN3CCN(C)CC3)[C@H]12 (relative stereo) [Example 79, rel-(3R,3aR,6aS)-1-Methanesulfonyl-4-[6-(4-methyl-piperazin-1-yl)-hexanoyl]-3-propyl-hexahydro-pyrrolo[3,2-b]pyrrol-2-one dihydrochloride]
162 nM	CCC[C@H]1C(=O)N(S(C)(=O)=O)[C@H]2CCN(C(=O)CCCN3CCN(C)CC3)[C@H]12 (relative stereo) [Example 82, rel-(3R,3aR,6aS)-1-Methanesulfonyl-4-[4-(4-methyl-piperazin-1-yl)-butyryl]-3-propyl-hexahydro-pyrrolo[3,2-b]pyrrol-2-one dihydrochloride]
198 nM	CCC[C@H]1C(=O)N(S(C)(=O)=O)[C@H]2CCN(C(=O)CCCN(CC)CC)[C@H]12 (relative stereo) [Example 83, rel-(3R,3aR,6aS)-4-(4-Diethylamino-butyryl)-1-methanesulfonyl-3-propyl-hexahydro-pyrrolo[3,2-b]pyrrol-2-one DL-tartrate]
103 nM	CCC[C@H]1C(=O)N(S(C)(=O)=O)[C@H]2CCN(C(=O)CCCN3CCCCCC3)[C@H]12 (relative stereo) [Example 86, hydrochloride]

same assay, conditions: HNE IC50, 118 nM purified human neutrophil elastase, pH 8.6, 15 min incubation at 30° C., MeO-succinyl-alanyl-alanyl-prolyl-valyl-p-nitroanilide substrate

SMILES	IC50
CCC[C@H]1C(=O)N(S(C)(=O)=O)[C@H]2CCN(C(=O)CCCCCN3C4CCCC3CC4)[C@H]12 (relative stereo) [Example 75, rel-(3R,3aR,6aS)-4-(6-8-Aza-bicyclo[3.2. 1]oct-8-yl-hexanoyl)-1-methanesulfonyl-3-propyl-hexahydro-pyrrolo[3,2-b]pyrrol-2-one hydrochloride]	33 nM
